# Results from ChEMBL document CHEMBL5120762, “Synthesis of 8-Fluoroneocryptolepine and Evaluation for Cytotoxic Activity against AGS Cancer Cells” (J Nat Prod, 2022).
# Calls of active or inactive are those of the source. The calls are words filed in the database; no cut-off is given here.
# Experiments:
# AGS [1] = assay: Induction of apoptosis in human AGS cells assessed as appearance of bright blue fluorescence at 250 nM measured after 48 hrs by Hoechst 33258 staining based fluorescence microscopy; format: functional, cell-based
# AGS [2] = assay: Cytotoxicity against human AGS cells assessed as reduction in cell viability measured after 48 hrs by MTT assay; format: functional, cell-based
# HCT-116 = assay: Cytotoxicity against human HCT-116 cells assessed as reduction in cell viability measured after 48 hrs by MTT assay; format: functional, cell-based; conditions: HCT-116, 48 h
# PANC-1 = assay: Cytotoxicity against human PANC-1 cells assessed as reduction in cell viability measured after 48 hrs by MTT assay; format: functional, cell-based; conditions: PANC-1, 48 h
# SMMC-7721 = assay: Cytotoxicity against human SMMC-7721 cells assessed as reduction in cell viability measured after 48 hrs by MTT assay; format: functional, cell-based; conditions: SMMC-7721, 48 h
# [3] = Cytotoxicity against human GES1 cells assessed as reduction in cell viability measured after 48 hrs by MTT assay; format: toxicity, cell-based
# AGS [4] = assay: Cytotoxicity against human AGS cells assessed as reduction in cell viability at 10 to 250 nM by MTT assay; format: functional, cell-based; conditions: dose 10-250 nM, time 24-72 hrs, TDE = time-dependent effect
# AGS [5] = assay: Antimigratory activity against human AGS cells measured after 48 hrs by crystal violet staining based transwell assay; format: functional, cell-based; conditions: dose 10-20 nM, DDE = dose-dependent effect
# AGS [6] = assay: Antimigratory activity against human AGS cells assessed as number of migrating cells at 10 to 20 nM measured after 48 hrs by crystal violet staining based transwell assay (reference value: 293); format: functional; conditions: dose 10-20 nM
# AGS [7] = assay: Induction of morphological changes in human AGS cells assessed as cytoplasm concentration at 50 nM measured after 48 hrs; format: functional, cell-based
# AGS [8] = assay: Induction of morphological changes in human AGS cells assessed as conversion pf nuclear pyknosis into dense matter at 50 nM measured after 48 hrs; format: functional, cell-based
# AGS [9] = assay: Induction of morphological changes in human AGS cells assessed as cell rounding at 50 to 250 nM measured after 48 hrs; format: functional, cell-based; conditions: dose 50-250 nM
# AGS [10] = assay: Induction of morphological changes in human AGS cells assessed as appearance of loosely arranged cells at 50 to 250 nM measured after 48 hrs; format: functional, cell-based; conditions: dose 50-250 nM
# AGS [11] = assay: Induction of morphological changes in human AGS cells assessed as weak cell adhesion at 50 to 250 nM measured after 48 hrs; format: functional, cell-based; conditions: dose 50-250 nM
# AGS [12] = assay: Cell cycle arrest in human AGS cells assessed as accumulation at G0/G1 phase at 10 nM measured after 24 hrs by propidium iodide staining based flow cytometry (reference value: 39.77%); format: functional
# AGS [13] = assay: Cell cycle arrest in human AGS cells assessed as accumulation at S phase at 10 nM measured after 24 hrs by propidium iodide staining based flow cytometry (reference value: 43.66%); format: functional
# AGS [14] = assay: Cell cycle arrest in human AGS cells assessed as accumulation at G2/M phase at 10 nM measured after 24 hrs by propidium iodide staining based flow cytometry (reference value: 16.56%); format: functional
# AGS [15] = assay: Cell cycle arrest in human AGS cells assessed as accumulation at G0/G1 phase at 20 nM measured after 24 hrs by propidium iodide staining based flow cytometry (reference value: 39.77%); format: functional
# AGS [16] = assay: Cell cycle arrest in human AGS cells assessed as accumulation at S phase at 20 nM measured after 24 hrs by propidium iodide staining based flow cytometry (reference value: 43.66%); format: functional
# AGS [17] = assay: Cell cycle arrest in human AGS cells assessed as accumulation at G2/M phase at 20 nM measured after 24 hrs by propidium iodide staining based flow cytometry (reference value: 16.56%); format: functional
# AGS [18] = assay: Induction of apoptosis in human AGS cells assessed as chromatin shrinkage at 250 nM measured after 48 hrs by Hoechst 33258 staining based fluorescence microscopy; format: functional, cell-based
# AGS [19] = assay: Induction of apoptosis in human AGS cells assessed as nuclear fragmentation at 250 nM measured after 48 hrs by Hoechst 33258 staining based fluorescence microscopy; format: functional, cell-based
# AGS [20] = assay: Induction of apoptosis in human AGS cells assessed as appearance of apoptotic bodies at 250 nM measured after 48 hrs by Hoechst 33258 staining based fluorescence microscopy; format: functional, cell-based
# AGS [21] = assay: Induction of apoptosis in human AGS cells measured after 48 hrs by Annexin V-Alexa Fluor 488/propidium iodide staining based flow cytometry; format: functional, cell-based; conditions: dose 10-250 nM, DDE = dose-dependent effect
# AGS [22] = assay: Induction of apoptosis in human AGS cells assessed as viable cells at 10 nM measured after 48 hrs by Annexin V-Alexa Fluor 488/propidium iodide staining based flow cytometry (reference value: 95.6%); format: functional; conditions: read-out: Activity
# AGS [23] = assay: Induction of apoptosis in human AGS cells assessed as early apoptotic cells at 10 nM measured after 48 hrs by Annexin V-Alexa Fluor 488/propidium iodide staining based flow cytometry (reference value: 0.4%); format: functional
# AGS [24] = assay: Induction of apoptosis in human AGS cells assessed as late apoptotic cells at 10 nM measured after 48 hrs by Annexin V-Alexa Fluor 488/propidium iodide staining based flow cytometry (reference value: 3.1%); format: functional
# AGS [25] = assay: Induction of apoptosis in human AGS cells assessed as necrotic cells at 10 nM measured after 48 hrs by Annexin V-Alexa Fluor 488/propidium iodide staining based flow cytometry (reference value: 0.9%); format: functional
# AGS [26] = assay: Induction of apoptosis in human AGS cells assessed as viable cells at 50 nM measured after 48 hrs by Annexin V-Alexa Fluor 488/propidium iodide staining based flow cytometry (reference value: 95.6%); format: functional; conditions: read-out: Activity
# AGS [27] = assay: Induction of apoptosis in human AGS cells assessed as early apoptotic cells at 50 nM measured after 48 hrs by Annexin V-Alexa Fluor 488/propidium iodide staining based flow cytometry (reference value: 0.4%); format: functional
# AGS [28] = assay: Induction of apoptosis in human AGS cells assessed as late apoptotic cells at 50 nM measured after 48 hrs by Annexin V-Alexa Fluor 488/propidium iodide staining based flow cytometry (reference value: 3.1%); format: functional
# AGS [29] = assay: Induction of apoptosis in human AGS cells assessed as necrotic cells at 50 nM measured after 48 hrs by Annexin V-Alexa Fluor 488/propidium iodide staining based flow cytometry (reference value: 0.9%); format: functional
# AGS [30] = assay: Induction of apoptosis in human AGS cells assessed as viable cells at 250 nM measured after 48 hrs by Annexin V-Alexa Fluor 488/propidium iodide staining based flow cytometry (reference value: 95.6%); format: functional; conditions: read-out: Activity
# AGS [31] = assay: Induction of apoptosis in human AGS cells assessed as early apoptotic cells at 250 nM measured after 48 hrs by Annexin V-Alexa Fluor 488/propidium iodide staining based flow cytometry (reference value: 0.4%); format: functional
# AGS [32] = assay: Induction of apoptosis in human AGS cells assessed as late apoptotic cells at 250 nM measured after 48 hrs by Annexin V-Alexa Fluor 488/propidium iodide staining based flow cytometry (reference value: 3.1%); format: functional
# AGS [33] = assay: Induction of apoptosis in human AGS cells assessed as necrotic cells at 250 nM measured after 48 hrs by Annexin V-Alexa Fluor 488/propidium iodide staining based flow cytometry (reference value: 0.9%); format: functional
# AGS [34] = assay: Induction of mitochondrial membrane potential loss in human AGS cells assessed as increase in green fluorescence at 10 to 250 nM measured after 48 hrs by JC-10 staining based fluorescence microscopy; format: functional, cell-based; conditions: dose 10-250 nM
# AGS [35] = assay: Induction of cell cycle arrest in human AGS cells assessed as reduction in CDK1 gene expression at 50 nM measured after 48 hrs by RT-qPCR analysis; format: functional, cell-based
# AGS [36] = assay: Induction of cell cycle arrest in human AGS cells assessed as reduction in cyclinB1 gene expression at 50 nM measured after 48 hrs by RT-qPCR analysis; format: functional, cell-based
# AGS [37] = assay: Up regulation of E-cadherin expression in human AGS cells at 50 nM measured after 48 hrs by Western blot analysis; format: functional, cell-based
# AGS [38] = assay: Increase in PI3KCA mRNA expression in human AGS cells at 50 nM measured after 48 hrs by RT-qPCR analysis; format: functional, cell-based
# AGS [39] = assay: Reduction in beta-catenin mRNA expression in human AGS cells at 50 nM measured after 48 hrs by RT-qPCR analysis; format: functional, cell-based
# AGS [40] = assay: Increase in GSK-3beta mRNA expression in human AGS cells at 50 nM measured after 48 hrs by RT-qPCR analysis; format: functional, cell-based
# AGS [41] = assay: Increase in MEK mRNA expression in human AGS cells at 50 nM measured after 48 hrs by RT-qPCR analysis; format: functional, cell-based
# AGS [42] = assay: Down regulation of PI3KCA expression in human AGS cells at 50 nM measured after 48 hrs by Western blot analysis; format: functional, cell-based
# AGS [43] = assay: Inhibition of PI3K in human AGS cells assessed as decrease in AKT phosphorylation at 50 nM measured after 48 hrs by Western blot analysis; format: cell-based
# AGS [44] = assay: Inhibition of PI3K in human AGS cells assessed as decrease in AKT expression at 50 nM measured after 48 hrs by Western blot analysis; format: cell-based
# AGS [45] = assay: Induction of cell cycle arrest in human AGS cells assessed as reduction in CDK1 expression at 50 nM measured after 48 hrs by Western blot analysis; format: functional, cell-based
# AGS [46] = assay: Induction of apoptosis in human AGS cells assessed as up regulation of cleaved caspase-3 expression at 50 nM measured after 48 hrs by Western blot analysis; format: functional, cell-based
# AGS [47] = assay: Inhibition of PI3K in human AGS cells assessed as decrease in AKT mRNA expression at 50 nM measured after 48 hrs by RT-qPCR analysis; format: cell-based
structure (smiles),measurement,setting,value
Cn1c2nc3cc(F)ccc3c-2cc2ccccc21,Activity,AGS [1],Active
same,IC50,AGS [2],0.043 µM
same,Activity,AGS [2]; DDE = dose-dependent effect,Dde
same,IC50,HCT-116,18 µM
same,IC50,PANC-1,> 50 µM
same,IC50,SMMC-7721,52 µM
same,IC50 at 48 h,[3],40 µM
same,Activity,AGS [4],Tde
same,Activity,AGS [5],Dde
same,Activity,AGS [6],66
same,Activity,AGS [7],Active
same,Activity,AGS [8],Active
same,Activity,AGS [9],Active
same,Activity,AGS [10],Active
same,Activity,AGS [11],Active
same,Activity,AGS [12],35.82%
same,Activity,AGS [13],42.57%
same,Activity,AGS [14],21.61%
same,Activity,AGS [15],29.43%
same,Activity,AGS [16],45.6%
same,Activity,AGS [17],24.97%
same,Activity,AGS [18],Active
same,Activity,AGS [19],Active
same,Activity,AGS [20],Active
same,Activity,AGS [21],Dde
same,viability at 0.01 µM,AGS [22],88.6%
same,Activity,AGS [23],1.8%
same,Activity,AGS [24],7.3%
same,Activity,AGS [25],2.2%
same,viability at 0.05 µM,AGS [26],69.8%
same,Activity,AGS [27],2.9%
same,Activity,AGS [28],17.9%
same,Activity,AGS [29],9.5%
same,viability at 0.25 µM,AGS [30],24.3%
same,Activity,AGS [31],7.7%
same,Activity,AGS [32],37.1%
same,Activity,AGS [33],30.9%
same,Activity,AGS [34],Active
same,Activity,AGS [35],Active
same,Activity,AGS [36],Active
same,Activity,AGS [37],Active
same,Activity,AGS [38],Active
same,Activity,AGS [39],Active
same,Activity,AGS [40],Active
same,Activity,AGS [41],Active
same,Activity,AGS [42],Active
same,inhibition,AGS [43],Active
same,inhibition,AGS [44],Active
same,Activity,AGS [45],Active
same,Activity,AGS [46],Active
same,inhibition,AGS [47],Active
O=c1[nH]cc(F)c(=O)[nH]1 [FLUOROURACIL],IC50,AGS [2],58 µM
same,IC50 at 48 h,[3],> 100 µM
